Source: the kinase profiling compilation of Christmann-Franck et al. (2016)

What was measured:
Assay in all cases: radiometric filter-binding kinase assay, Kinase HotSpot
Settings in all cases: compound 0.5 µM; ATP 10 µM
STK24 (human) = STK24 (human) (UniProt Q9Y6E0)
DCLK2 (human) = DCLK2 (human) (UniProt Q8N568)
IRAK1 (human) = IRAK1 (human) (UniProt P51617)
SYK (human) = SYK (human) (UniProt P43405)
TAOK2 (human) = TAOK2 (human) (UniProt Q9UL54)
PRKD2 (human) = PRKD2 (human) (UniProt Q9BZL6)
STK3 (human) = STK3 (human) (UniProt Q13188)
PTK6 (human) = PTK6 (human) (UniProt Q13882)
MYLK2 (human) = MYLK2 (human) (UniProt Q9H1R3)
ITK (human) = ITK (human) (UniProt Q08881)
PLK2 (human) = PLK2 (human) (UniProt Q9NYY3)
PRKCB2 (human) = PRKCB2 (human) (UniProt P05771)
CDK7 CCNH MNAT1 (human) = CDK7 CCNH MNAT1 (human) (UniProt P50613+P51948+P51946)
MKNK2 (human) = MKNK2 (human) (UniProt Q9HBH9)
DDR2 (human) = DDR2 (human) (UniProt Q16832)
NEK2 (human) = NEK2 (human) (UniProt P51955)
STK10 (human) = STK10 (human) (UniProt O94804)
MAPK12 (human) = MAPK12 (human) (UniProt P53778)
BLK (human) = BLK (human) (UniProt P51451)
CDK4 CCND3 (human) = CDK4 CCND3 (human) (UniProt P30281+P11802)
FGFR4 (human) = FGFR4 (human) (UniProt P22455)
HCK (human) = HCK (human) (UniProt P08631)
NUAK2 (human) = NUAK2 (human) (UniProt Q9H093)
EPHB1 (human) = EPHB1 (human) (UniProt P54762)
DMPK (human) = DMPK (human) (UniProt Q09013)
MAPKAPK2 (human) = MAPKAPK2 (human) (UniProt P49137)
HIPK3 (human) = HIPK3 (human) (UniProt Q9H422)
SRPK3 (human) = SRPK3 (human) (UniProt Q9UPE1)
IGF1R (human) = IGF1R (human) (UniProt P08069)
CSNK1E (human) = CSNK1E (human) (UniProt P49674)
MAPK8 (human) = MAPK8 (human) (UniProt P45983)
SRC (human) = SRC (human) (UniProt P12931)
BMX (human) = BMX (human) (UniProt P51813)
VRK1 (human) = VRK1 (human) (UniProt Q99986)
AKT2 (human) = AKT2 (human) (UniProt P31751)
TSSK2 (human) = TSSK2 (human) (UniProt Q96PF2)
EPHA8 (human) = EPHA8 (human) (UniProt P29322)
PRKCD (human) = PRKCD (human) (UniProt Q05655)
FGFR2 (human) = FGFR2 (human) (UniProt P21802)
CDK4 CCND1 (human) = CDK4 CCND1 (human) (UniProt P24385+P11802)
MAPK9 (human) = MAPK9 (human) (UniProt P45984)
BTK (human) = BTK (human) (UniProt Q06187)

MAPK9 (human), sequence (P45984 whole entry, looked up): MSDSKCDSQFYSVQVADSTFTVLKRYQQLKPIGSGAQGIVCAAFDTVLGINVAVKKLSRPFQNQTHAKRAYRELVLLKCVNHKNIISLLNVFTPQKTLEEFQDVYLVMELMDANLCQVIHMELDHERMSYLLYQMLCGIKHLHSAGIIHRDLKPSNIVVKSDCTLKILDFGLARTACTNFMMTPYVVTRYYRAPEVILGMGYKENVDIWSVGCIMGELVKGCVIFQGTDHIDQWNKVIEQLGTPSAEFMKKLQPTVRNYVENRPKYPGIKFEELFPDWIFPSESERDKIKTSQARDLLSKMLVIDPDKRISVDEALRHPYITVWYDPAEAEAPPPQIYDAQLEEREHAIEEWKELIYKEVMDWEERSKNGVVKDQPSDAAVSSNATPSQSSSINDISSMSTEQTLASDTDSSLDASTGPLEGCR
NUAK2 (human), sequence (Q9H093 whole entry, looked up): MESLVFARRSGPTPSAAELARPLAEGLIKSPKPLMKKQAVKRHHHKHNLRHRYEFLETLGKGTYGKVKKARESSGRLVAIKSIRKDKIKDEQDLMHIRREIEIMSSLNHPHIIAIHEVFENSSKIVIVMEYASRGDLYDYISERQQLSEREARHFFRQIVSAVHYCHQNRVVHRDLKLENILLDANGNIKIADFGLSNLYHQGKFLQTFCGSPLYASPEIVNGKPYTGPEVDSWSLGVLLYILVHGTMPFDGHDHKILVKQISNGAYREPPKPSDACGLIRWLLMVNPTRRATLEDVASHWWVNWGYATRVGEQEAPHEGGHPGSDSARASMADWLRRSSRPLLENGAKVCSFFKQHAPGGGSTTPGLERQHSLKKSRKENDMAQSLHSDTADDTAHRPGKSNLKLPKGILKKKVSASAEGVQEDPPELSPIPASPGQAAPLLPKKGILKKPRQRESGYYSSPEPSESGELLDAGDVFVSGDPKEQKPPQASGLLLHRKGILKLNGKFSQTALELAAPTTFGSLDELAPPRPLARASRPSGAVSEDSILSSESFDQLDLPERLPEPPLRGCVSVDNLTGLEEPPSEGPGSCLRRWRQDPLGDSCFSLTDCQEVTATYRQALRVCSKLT
MAPK8 (human), sequence (P45983 whole entry, looked up): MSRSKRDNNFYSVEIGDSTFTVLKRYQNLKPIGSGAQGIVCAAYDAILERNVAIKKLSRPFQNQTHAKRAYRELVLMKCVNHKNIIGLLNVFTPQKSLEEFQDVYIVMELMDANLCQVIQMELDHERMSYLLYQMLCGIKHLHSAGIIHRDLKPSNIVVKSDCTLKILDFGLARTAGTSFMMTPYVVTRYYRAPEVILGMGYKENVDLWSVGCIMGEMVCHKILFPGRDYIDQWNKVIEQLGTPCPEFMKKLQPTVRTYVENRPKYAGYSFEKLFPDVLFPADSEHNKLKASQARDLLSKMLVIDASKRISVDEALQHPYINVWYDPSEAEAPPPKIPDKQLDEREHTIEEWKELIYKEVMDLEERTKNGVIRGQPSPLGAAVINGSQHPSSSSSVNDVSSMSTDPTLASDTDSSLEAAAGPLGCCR
STK10 (human), sequence (O94804 whole entry, looked up): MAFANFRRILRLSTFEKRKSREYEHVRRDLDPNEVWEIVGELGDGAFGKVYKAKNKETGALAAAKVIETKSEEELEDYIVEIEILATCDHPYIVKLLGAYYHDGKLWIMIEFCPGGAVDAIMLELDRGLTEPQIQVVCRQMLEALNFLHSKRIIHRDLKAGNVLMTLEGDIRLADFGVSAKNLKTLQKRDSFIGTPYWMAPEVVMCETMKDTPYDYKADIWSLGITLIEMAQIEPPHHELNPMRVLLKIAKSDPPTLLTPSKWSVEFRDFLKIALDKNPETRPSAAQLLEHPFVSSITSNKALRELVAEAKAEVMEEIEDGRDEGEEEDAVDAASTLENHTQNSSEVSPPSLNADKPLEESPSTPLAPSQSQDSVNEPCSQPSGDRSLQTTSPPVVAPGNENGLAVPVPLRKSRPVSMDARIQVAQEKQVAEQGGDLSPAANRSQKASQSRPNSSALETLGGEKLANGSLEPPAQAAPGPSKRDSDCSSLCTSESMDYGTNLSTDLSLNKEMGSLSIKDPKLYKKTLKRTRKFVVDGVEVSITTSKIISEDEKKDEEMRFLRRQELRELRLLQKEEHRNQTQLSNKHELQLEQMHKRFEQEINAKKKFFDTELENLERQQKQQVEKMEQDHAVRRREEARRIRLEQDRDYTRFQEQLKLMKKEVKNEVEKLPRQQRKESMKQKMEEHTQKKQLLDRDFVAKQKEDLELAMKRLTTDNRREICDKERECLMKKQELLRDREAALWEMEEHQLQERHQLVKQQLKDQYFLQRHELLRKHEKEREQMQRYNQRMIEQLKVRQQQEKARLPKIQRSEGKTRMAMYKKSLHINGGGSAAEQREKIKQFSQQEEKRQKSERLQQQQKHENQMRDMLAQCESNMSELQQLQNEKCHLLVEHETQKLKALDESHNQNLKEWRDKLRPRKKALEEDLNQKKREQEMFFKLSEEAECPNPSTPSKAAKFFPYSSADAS
MKNK2 (human), sequence (Q9HBH9 whole entry, looked up): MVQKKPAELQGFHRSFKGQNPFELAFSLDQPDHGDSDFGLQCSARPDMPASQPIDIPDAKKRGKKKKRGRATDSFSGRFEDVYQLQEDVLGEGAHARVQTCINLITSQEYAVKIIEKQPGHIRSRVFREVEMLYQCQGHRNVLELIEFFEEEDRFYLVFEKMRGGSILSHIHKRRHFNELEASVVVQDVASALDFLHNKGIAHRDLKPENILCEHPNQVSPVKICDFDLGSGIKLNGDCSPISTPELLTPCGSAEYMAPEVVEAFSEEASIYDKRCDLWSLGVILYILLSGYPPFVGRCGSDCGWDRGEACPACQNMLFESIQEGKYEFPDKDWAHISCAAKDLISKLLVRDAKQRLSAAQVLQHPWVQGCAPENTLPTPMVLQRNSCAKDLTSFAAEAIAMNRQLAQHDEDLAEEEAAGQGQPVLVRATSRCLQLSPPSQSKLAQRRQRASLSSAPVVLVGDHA
PRKCD (human), sequence (Q05655 whole entry, looked up): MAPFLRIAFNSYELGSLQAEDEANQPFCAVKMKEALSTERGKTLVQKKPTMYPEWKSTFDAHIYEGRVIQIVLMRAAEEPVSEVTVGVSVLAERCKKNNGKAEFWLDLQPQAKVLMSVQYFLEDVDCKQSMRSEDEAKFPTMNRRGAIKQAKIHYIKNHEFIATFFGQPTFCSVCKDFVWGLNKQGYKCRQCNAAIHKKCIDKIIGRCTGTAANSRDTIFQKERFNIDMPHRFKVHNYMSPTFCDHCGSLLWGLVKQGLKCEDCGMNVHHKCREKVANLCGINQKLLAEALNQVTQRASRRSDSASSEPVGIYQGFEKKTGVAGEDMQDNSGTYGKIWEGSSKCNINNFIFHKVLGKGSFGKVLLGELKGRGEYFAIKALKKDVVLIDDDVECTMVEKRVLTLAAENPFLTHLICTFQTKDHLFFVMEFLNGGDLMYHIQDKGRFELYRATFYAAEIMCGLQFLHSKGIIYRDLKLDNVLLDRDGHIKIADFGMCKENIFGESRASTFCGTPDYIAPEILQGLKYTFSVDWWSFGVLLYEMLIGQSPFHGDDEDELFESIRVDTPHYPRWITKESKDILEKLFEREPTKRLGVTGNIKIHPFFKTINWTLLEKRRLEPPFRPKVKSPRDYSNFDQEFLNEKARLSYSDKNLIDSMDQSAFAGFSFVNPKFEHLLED
BMX (human), sequence (P51813 whole entry, looked up): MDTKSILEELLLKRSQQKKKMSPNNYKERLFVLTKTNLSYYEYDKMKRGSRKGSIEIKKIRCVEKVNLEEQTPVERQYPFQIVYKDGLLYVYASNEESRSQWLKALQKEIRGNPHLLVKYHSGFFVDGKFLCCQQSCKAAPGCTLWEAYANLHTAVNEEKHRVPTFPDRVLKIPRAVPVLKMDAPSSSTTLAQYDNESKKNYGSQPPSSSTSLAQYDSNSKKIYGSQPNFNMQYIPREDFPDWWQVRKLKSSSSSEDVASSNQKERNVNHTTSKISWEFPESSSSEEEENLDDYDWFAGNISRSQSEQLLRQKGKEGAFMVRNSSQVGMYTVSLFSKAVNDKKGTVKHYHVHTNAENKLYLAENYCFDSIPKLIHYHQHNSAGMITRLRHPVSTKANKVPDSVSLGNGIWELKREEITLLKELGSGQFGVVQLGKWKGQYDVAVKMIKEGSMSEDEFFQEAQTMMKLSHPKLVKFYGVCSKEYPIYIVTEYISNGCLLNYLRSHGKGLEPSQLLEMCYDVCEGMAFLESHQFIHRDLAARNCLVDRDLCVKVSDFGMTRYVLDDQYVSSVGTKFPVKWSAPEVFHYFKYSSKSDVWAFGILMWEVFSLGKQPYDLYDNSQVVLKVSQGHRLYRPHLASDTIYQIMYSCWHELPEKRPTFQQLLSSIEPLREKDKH
ITK (human), sequence (Q08881 whole entry, looked up): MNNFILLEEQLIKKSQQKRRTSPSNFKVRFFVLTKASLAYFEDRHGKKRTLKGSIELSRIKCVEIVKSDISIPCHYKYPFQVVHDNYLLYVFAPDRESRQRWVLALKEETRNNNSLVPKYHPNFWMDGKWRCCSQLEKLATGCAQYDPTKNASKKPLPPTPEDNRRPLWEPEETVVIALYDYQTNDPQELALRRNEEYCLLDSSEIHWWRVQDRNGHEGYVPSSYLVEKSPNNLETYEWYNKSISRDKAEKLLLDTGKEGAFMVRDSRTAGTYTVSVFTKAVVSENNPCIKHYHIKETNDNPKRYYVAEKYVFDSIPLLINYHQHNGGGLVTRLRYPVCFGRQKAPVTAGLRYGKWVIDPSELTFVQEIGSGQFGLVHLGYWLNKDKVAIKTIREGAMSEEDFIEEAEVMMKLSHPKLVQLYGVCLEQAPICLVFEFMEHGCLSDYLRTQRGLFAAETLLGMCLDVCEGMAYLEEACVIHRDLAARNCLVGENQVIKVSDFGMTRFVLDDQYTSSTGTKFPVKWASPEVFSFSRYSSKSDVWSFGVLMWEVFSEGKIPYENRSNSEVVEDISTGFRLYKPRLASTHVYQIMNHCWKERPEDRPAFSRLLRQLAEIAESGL

With `CCOc1cc2ncnc(Nc3cccc(Br)c3)c2cc1OCC` the residual activity (STK24 (human)) was 97.6%, the residual activity (DCLK2 (human)) was 99.5% and the residual activity (IRAK1 (human)) was 95.1%. It also gave a residual activity (SYK (human)) of 95.6%, a residual activity (TAOK2 (human)) of 101% and a residual activity (PRKD2 (human)) of 86.9%. For the same compound, the residual activity (STK3 (human)) was 99.5%, the residual activity (PTK6 (human)) was 27.7% and the residual activity (MYLK2 (human)) was 93.5%. The residual activity (ITK (human)) was 104%, the residual activity (PLK2 (human)) was 99.8% and the residual activity (PRKCB2 (human)) was 98.6%. It also gave a residual activity (CDK7 CCNH MNAT1 (human)) of 93%, a residual activity (MKNK2 (human)) of 34.3% and a residual activity (DDR2 (human)) of 100%. For the same compound, the residual activity (NEK2 (human)) was 98.7%, the residual activity (STK10 (human)) was 30.5% and the residual activity (MAPK12 (human)) was 105%. For the same compound, the residual activity (BLK (human)) was 74.9%, the residual activity (CDK4 CCND3 (human)) was 97.8% and the residual activity (FGFR4 (human)) was 87.1%. It also gave a residual activity (HCK (human)) of 59.4%, a residual activity (NUAK2 (human)) of 89.7% and a residual activity (EPHB1 (human)) of 73.8%. For the same compound, the residual activity (DMPK (human)) was 102%, the residual activity (MAPKAPK2 (human)) was 101% and the residual activity (HIPK3 (human)) was 102%. The residual activity (SRPK3 (human)) was 93.5%, the residual activity (IGF1R (human)) was 101% and the residual activity (CSNK1E (human)) was 93.8%. For the same compound, the residual activity (MAPK8 (human)) was 90.7%, the residual activity (SRC (human)) was 74.8% and the residual activity (BMX (human)) was 95.5%. The residual activity (VRK1 (human)) was 101%, the residual activity (AKT2 (human)) was 87.6% and the residual activity (TSSK2 (human)) was 104%. The residual activity (EPHA8 (human)) was 87.3%, the residual activity (PRKCD (human)) was 100% and the residual activity (FGFR2 (human)) was 96.3%. It also gave a residual activity (CDK4 CCND1 (human)) of 94.2%, a residual activity (MAPK9 (human)) of 98.5% and a residual activity (BTK (human)) of 72.7%.

In the case of `O=C1NC(=O)c2cc(Nc3ccc(F)cc3)c(Nc3ccc(F)cc3)cc21`, the residual activity (STK24 (human)) is reported as 93.7%, the residual activity (DCLK2 (human)) is reported as 100% and the residual activity (IRAK1 (human)) is reported as 88.5%. It also gave a residual activity (SYK (human)) of 98.8%, a residual activity (TAOK2 (human)) of 94.7% and a residual activity (PRKD2 (human)) of 86.8%. For the same compound, the residual activity (STK3 (human)) was 90.7%, the residual activity (PTK6 (human)) was 95.1% and the residual activity (MYLK2 (human)) was 98.7%. It also gave a residual activity (ITK (human)) of 87.3%, a residual activity (PLK2 (human)) of 99.6% and a residual activity (PRKCB2 (human)) of 15.5%. The residual activity (CDK7 CCNH MNAT1 (human)) was 100%, the residual activity (MKNK2 (human)) was 101% and the residual activity (DDR2 (human)) was 99.6%. The residual activity (NEK2 (human)) was 96.3%, the residual activity (STK10 (human)) was 79.2% and the residual activity (MAPK12 (human)) was 93.6%. For the same compound, the residual activity (BLK (human)) was 94.3%, the residual activity (CDK4 CCND3 (human)) was 99% and the residual activity (FGFR4 (human)) was 95.5%. For the same compound, the residual activity (HCK (human)) was 88.3%, the residual activity (NUAK2 (human)) was 112% and the residual activity (EPHB1 (human)) was 103%. It also gave a residual activity (DMPK (human)) of 108%, a residual activity (MAPKAPK2 (human)) of 95.7% and a residual activity (HIPK3 (human)) of 95.3%. It also gave a residual activity (SRPK3 (human)) of 98%, a residual activity (IGF1R (human)) of 102% and a residual activity (CSNK1E (human)) of 98%. For the same compound, the residual activity (MAPK8 (human)) was 91.4%, the residual activity (SRC (human)) was 101% and the residual activity (BMX (human)) was 95.3%. For the same compound, the residual activity (VRK1 (human)) was 93%, the residual activity (AKT2 (human)) was 95.1% and the residual activity (TSSK2 (human)) was 97.2%. For the same compound, the residual activity (EPHA8 (human)) was 95.5%, the residual activity (PRKCD (human)) was 98.2% and the residual activity (FGFR2 (human)) was 102%. For the same compound, the residual activity (CDK4 CCND1 (human)) was 101%, the residual activity (MAPK9 (human)) was 61.4% and the residual activity (BTK (human)) was 94.3%.

With `Cn1cc(/C=C2\C(=O)Nc3ccc(S(N)(=O)=O)cc32)c2ccccc21` the residual activity (STK24 (human)) was 80.2%, the residual activity (DCLK2 (human)) was 93.2% and the residual activity (IRAK1 (human)) was 14.2%. For the same compound, the residual activity (SYK (human)) was 16.5%, the residual activity (TAOK2 (human)) was 86.4% and the residual activity (PRKD2 (human)) was 87.2%. It also gave a residual activity (STK3 (human)) of 23.4%, a residual activity (PTK6 (human)) of 80.2% and a residual activity (MYLK2 (human)) of 53.6%. It also gave a residual activity (ITK (human)) of 21.4%, a residual activity (PLK2 (human)) of 104% and a residual activity (PRKCB2 (human)) of 86.7%. The residual activity (CDK7 CCNH MNAT1 (human)) was 73.7%, the residual activity (MKNK2 (human)) was 71.1% and the residual activity (DDR2 (human)) was 100%. The residual activity (NEK2 (human)) was 89.1%, the residual activity (STK10 (human)) was 17% and the residual activity (MAPK12 (human)) was 101%. It also gave a residual activity (BLK (human)) of 42.9%, a residual activity (CDK4 CCND3 (human)) of 94% and a residual activity (FGFR4 (human)) of 74.1%. It also gave a residual activity (HCK (human)) of 50%, a residual activity (NUAK2 (human)) of 102% and a residual activity (EPHB1 (human)) of 68.7%. The residual activity (DMPK (human)) was 106%, the residual activity (MAPKAPK2 (human)) was 101% and the residual activity (HIPK3 (human)) was 105%. For the same compound, the residual activity (SRPK3 (human)) was 88.5%, the residual activity (IGF1R (human)) was 87.9% and the residual activity (CSNK1E (human)) was 89%. The residual activity (MAPK8 (human)) was 108%, the residual activity (SRC (human)) was 45.1% and the residual activity (BMX (human)) was 77%. For the same compound, the residual activity (VRK1 (human)) was 103%, the residual activity (AKT2 (human)) was 88.6% and the residual activity (TSSK2 (human)) was 84%. It also gave a residual activity (EPHA8 (human)) of 83.4%, a residual activity (PRKCD (human)) of 91.3% and a residual activity (FGFR2 (human)) of 50.5%. For the same compound, the residual activity (CDK4 CCND1 (human)) was 106%, the residual activity (MAPK9 (human)) was 93.8% and the residual activity (BTK (human)) was 30.4%.
